Experimental data published in patent US20240174680A1, “CDK2 INHIBITORS AND METHODS OF USING THE SAME” (Cedilla Therapeutics, Inc., priority 2021, published 2024).
pIC50: −log10 of the molar value.

Biological target: CDK2/Cyclin E1 (Homo sapiens, UniProt P24941)
Test: CDK2/Cyclin E1 Caliper LabChip EZ Reader mobility shift assay
Format: biochemical
Set-up: purchased Eurofins 14-475
Conditions: read-out: Caliper Assay (CDK2/CCNE1): IC50
Summary of the method: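 Substrate-to-product conversion of fluorescent peptide (1.5 μM final) read by capillary electrophoresis after 100 min reaction, EDTA-quenched. Enzyme (2.5 nM final) and ATP (100 μM final) were preincubated 30 min with inhibitor dilutions first. % activity vs concentration fitted four-parameter for IC50.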

| SMILES | pIC50 |
| --- | --- |
| COC[C@H]1CCCN(C(=O)[C@@H](NC(=O)[C@@H]2CN(C(=O)c3cncs3)CC23CN(C(=O)[C@H]2CC2(C)C)C3)[C@@H](C)OC[C@H]2CC[C@H](OC)CC2)C1 [I-402] | 7.00 to 8.00 |
| CCOC(=O)[C@@H]1CCCN(C(=O)[C@@H](NC(=O)[C@@H]2CN(C(=O)c3cnn(Cc4ccccc4)c3)CC23CN(C(=O)[C@H]2CC2(C)C)C3)[C@@H](C)OCC2CCCCC2)C1 [I-484] | ≥ 8.00 |
| C[C@@H](OCC1CCCCC1)[C@H](NC(=O)[C@@H]1CN(C(=O)c2cnn(Cc3ccccc3)c2)CC12CN(C(=O)[C@H]1CC1(C)C)C2)C(=O)NCCC(=O)OC(C)(C)C [I-478] | ≥ 8.00 |
| Cc1ccc2[nH]c(CNC(=O)C3CN(C(=O)c4cnn(Cc5ccccc5)c4)CC34CN(C(=O)[C@H]3CC3(C)C)C4)nc2c1 (some centres unmarked) [I-278] | 5.00 to 6.00 |
| C[C@@H](OCC1CCCCC1)C(NC(=O)[C@@H]1CN(C(=O)c2cncs2)CC12CN(C(=O)[C@H]1CC1(C)C)C2)c1nnco1 (stereo in doubt) [I-415, (S)—N-((1S,2R)-2-(cyclohexylmethoxy)-1-(1,3,4-oxadiazol-2-yl)propyl)-2-((S)-2,2-dimethylcyclopropane-1-carbonyl)-6-(thiazole-5-carbonyl)-2,6-diazaspiro[3.4]octane-8-carboxamide] | 7.00 to 8.00 |
| CNC(=O)[C@@H](NC(=O)[C@@H]1CN(C(=O)c2cnn(Cc3ccccc3)c2)CC12CN(C(=O)[C@H]1CC1(C)C)C2)C(C)(C)SCc1ccccc1 [I-171A, (S)-6-(1-benzyl-1H-pyrazole-4-carbonyl)-N—((R)-3-(benzylthio)-3-methyl-1-(methylamino)-1-oxobutan-2-yl)-2-((S)-2,2-dimethylcyclopropane-1-carbonyl)-2,6-diazaspiro[3.4]octane-8-carboxamide] | 6.00 to 7.00 |
| C[C@@H](OCC1CCCCC1)[C@H](NC(=O)[C@@H]1CN(C(=O)c2cnn(Cc3ccccc3)c2)CC12CN(C(=O)[C@H]1CC1(C)C)C2)C(=O)N1CCC[C@@H](N)C1 [I-218] | ≥ 8.00 |
| CNC(=O)[C@@H](NC(=O)[C@@H]1CN(C(=O)c2cnn(Cc3ccccc3)c2)CC12CN(C(=O)[C@H]1CC1(C)C)C2)[C@@H](C)OCC1CCCC1 [I-110A] | 7.00 to 8.00 |
| CC1(C)C[C@@H]1C(=O)N1CC2(CN(C(=O)c3cnn(Cc4ccccc4)c3)C[C@H]2C(=O)N[C@H]2CCc3cc(Cl)ccc32)C1 [I-133A] | 5.00 to 6.00 |
| CCCC(=O)N1CC2(C1)CN(C(=O)c1cnn(Cc3ccccc3)c1)C[C@@H]2C(=O)N[C@H](C(=O)NC)[C@@H](C)OCc1ccccc1 [I-60B] | < 5.00 |
| C[C@@H](OCC1CCC(F)(F)CC1)[C@H](NC(=O)[C@@H]1CN(C(=O)c2cncs2)CC12CN(C(=O)[C@H]1CC1(C)C)C2)C(=O)N1CCC[C@H](COC(F)(F)F)C1 [I-326] | ≥ 8.00 |
| CC(C)(O)C(NC(=O)[C@@H]1CN(C(=O)c2cnco2)CC12CN(C(=O)[C@H]1CC1(C)C)C2)c1cccc(C2CCOCC2)n1 (some centres unmarked) [I-436] | < 5.00 |
| CC1(C)C[C@@H]1C(=O)N1CC2(CN(C(=O)c3cnn(Cc4ccccc4)c3)C[C@H]2C(=O)N[C@H]2CCc3cc(Cl)ccc32)C1 [I-120A] | 6.00 to 7.00 |
| CNC(=O)[C@@H](NC(=O)[C@H]1CN(C(=O)c2cnn(Cc3ccccc3)c2)CC12CN(C(=O)[C@H]1CC1(C)C)C2)[C@@H](C)OCC(C)(C)C [I-130B] | 6.00 to 7.00 |
| CNC(=O)[C@@H](NC(=O)[C@@H]1CN(C(=O)c2cnn(Cc3ccccc3)c2)CC12CN(C(=O)[C@H]1CC1(C)C)C2)[C@@H](C)OCC(C)(C)C [I-130A] | 7.00 to 8.00 |
| CNC(=O)[C@@H](NC(=O)[C@@H]1CN(C(=O)c2cnc(CC3CC3)s2)CC12CN(C(=O)[C@H]1CC1(C)C)C2)[C@@H](C)OCC1CCCCC1 [I-177A] | 6.00 to 7.00 |
| C[C@@H](OCC1CCCCC1)[C@H](NC(=O)[C@@H]1CN(C(=O)c2cnn(Cc3ccccc3)c2)CC12CN(C(=O)[C@H]1CC1(C)C)C2)C(=O)NCC(C)(C)C(=O)O [I-472] | ≥ 8.00 |
| C[C@@H]1C[C@H](C)CN(C(=O)[C@@H](NC(=O)C2CN(C(=O)c3cnn(Cc4ccccc4)c3)CC23CN(C(=O)[C@H]2CC2(C)C)C3)[C@@H](C)OCC2CCCCC2)C1 (some centres unmarked) [I-104] | 7.00 to 8.00 |

| SMILES | pIC50 |
| --- | --- |
| CC1(C)C[C@@H]1C(=O)N1CC2(CN(C(=O)c3cnn(Cc4ccccc4)c3)C[C@@H]2C(=O)N2CCC(Cc3ccccc3)CC2)C1 [I-58B] | 5.00 to 6.00 |
| CNC(=O)[C@@H](NC(=O)[C@@H]1CN(C(=O)c2c[nH]c(=O)s2)CC12CN(C(=O)[C@H]1CC1(C)C)C2)[C@@H](C)OCC1CCCCC1 [I-184] | 6.00 to 7.00 |
| CC1(C)C[C@@H]1C(=O)N1CC2(CN(C(=O)c3cnn(Cc4ccccc4)c3)C[C@H]2C(=O)N2CCC[C@H](C(=O)NC3CCCCC3)C2)C1 [I-180] | 6.00 to 7.00 |
| CO[C@H]1COCC[C@@H]1NC(=O)[C@H]1CN(C(=O)c2cnn(Cc3ccccc3)c2)CC12CN(C(=O)[C@H]1CC1(C)C)C2 [I-131B] | < 5.00 |
| CNC(=O)[C@@H](NC(=O)[C@@H]1CN(C(=O)c2cnc(C(F)(F)F)s2)CC12CN(C(=O)[C@H]1CC1(C)C)C2)[C@@H](C)OCC1CCCCC1 [I-161A] | < 5.00 |
| CC1(C)C[C@@H]1C(=O)N1CC2(CN(C(=O)c3cnn(Cc4ccccc4)c3)C[C@H]2C(=O)NC2CCCN(C(=O)c3ccccc3)C2)C1 (some centres unmarked) [I-59A] | < 5.00 |
| CC1(C)C[C@@H]1C(=O)N1CC2(CN(C(=O)c3cnn(Cc4ccccc4)c3)C[C@H]2C(=O)N2CCC[C@@H](OCC3CCCCC3)C2)C1 [I-254] | < 5.00 |
| CNC(=O)[C@@H](NC(=O)[C@@H]1CN(C(=O)c2cncs2)CC12CN(C(=O)[C@H]1CC1(C)C)C2)[C@@H](C)OCC1CC2CCC1O2 (some centres unmarked) [I-462] | 6.00 to 7.00 |
| COCC1CCCN(C(=O)[C@@H](NC(=O)C2CN(C(=O)c3cnn(Cc4ccccc4)c3)CC23CN(C(=O)[C@H]2CC2(C)C)C3)[C@@H](C)OCc2ccccc2)C1 (some centres unmarked) [I-64] | 7.00 to 8.00 |
| CNC(=O)[C@@H](NC(=O)[C@@H]1CN(C(=O)c2cnn(Cc3ccc(C(=O)O)cc3)c2)CC12CN(C(=O)[C@H]1CC1(C)C)C2)[C@@H](C)OCc1ccccc1 [I-476] | 5.00 to 6.00 |
| C[C@@H](OCC1CCCCC1)[C@H](NC(=O)[C@@H]1CN(C(=O)c2cnn(Cc3ccccc3)c2)CC12CN(C(=O)[C@H]1CC1(C)C)C2)C(=O)N1CC(CN)C1 [I-239] | ≥ 8.00 |
| C[C@@H](OCc1ccccc1)[C@H](NC(=O)C1CN(C(=O)c2cnn(Cc3ccccc3)c2)CC12CN(C(=O)[C@H]1CC1(C)C)C2)C(=O)N1CCCCC1 (stereo partly drawn) [I-97, 6-(1-benzyl-1H-pyrazole-4-carbonyl)-N-((2S,3R)-3-(benzyloxy)-1-oxo-1-(piperidin-1-yl)butan-2-yl)-2-((S)-2,2-dimethylcyclopropanecarbonyl)-2,6-diazaspiro[3.4]octane-8-carboxamide] | 7.00 to 8.00 |
| CN(C(=O)[C@@H]1CCCN(C(=O)[C@@H]2CN(C(=O)c3cnn(Cc4ccccc4)c3)CC23CN(C(=O)[C@H]2CC2(C)C)C3)C1)C1CCCCC1 [I-181] | 5.00 to 6.00 |
| C[C@@H](OCC1CCCCC1)[C@H](NC(=O)C1CN(C(=O)c2cnn(Cc3ccccc3)c2)CC12CN(C(=O)[C@H]1CC1(C)C)C2)C(=O)N1CCCCC1 (some centres unmarked) [I-194 mixture] | ≥ 8.00 |
| COC(=O)[C@H](CO)NC(=O)[C@H]1CN(C(=O)c2cnn(Cc3ccccc3)c2)CC12CN(C(=O)[C@H]1CC1(C)C)C2 [I-209B] | < 5.00 |
| CNC(=O)C(NC(=O)[C@@H]1CN(C(=O)c2cncs2)CC12CN(C(=O)[C@H]1CC1(C)C)C2)c1cccc(N2CCOCC2)n1 (some centres unmarked) [I-422] | 5.00 to 6.00 |
| CNC(=O)[C@@H](NC(=O)[C@H]1CN(Cc2cccnc2)CC12CN(C(=O)[C@H]1CC1(C)C)C2)[C@@H](C)OCc1ccccc1 [I-49B] | < 5.00 |
